System: Aedes aegypti mosquitoes
Assay: Arm-in-cage testing of protective efficacy
Assay type: in vivo
Experimental: Additional testing was performed with the lotion of example 3 including sunflower oil, isopropyl alcohol, peppermint oil, citronella oil, zinc oxide, water and turmeric oil with the following protocols. Aedes aegypti mosquitoes were obtained from insecticide-susceptible reference strains held at the London School of Hygiene & Tropical Medicine, UK. All mosquitoes are reared and housed under optimal environmental conditions of 25° C.±2° C. and 80% Relative Humidity with a 12:12 hour photoperiod. Testing was carried out in a testing room maintained at […] with a 12:12 hour photoperiod. For each product, the same person carried out the arm-in-cage testing.
For each product test, three batches of 50 female mosquitoes were placed in cages inside the testing room. Before the start of each test a bare arm with gloved hand was inserted into the cage for 30 seconds to assess the biting readiness of the mosquitoes. […] The number of mosquitoes probing the untreated arm was counted at the end of the 30 second test.
Following the combined fitness/control test, the product was applied onto the right arm at the WHO standard rate of 1 ml per 600 cm 2 […] for DEET, and at a rate of 2 mg per cm′ for the Sunscreen Repellent. The arm was then inserted into the cage for 30 seconds and the number of mosquitoes probing on the arm counted and recorded. […]

CCN(CC)C(=O)c1cccc(C)c1 [8% DEET]
50% protective efficacy time (time after application with 50% protection): 6 h
complete (100%) protective efficacy time (time after application with 100% protection): 1 h
